The text below walks through data of patent US7153866B1 (The United States of America as represented by the …, priority 1997, dated 2006).

One series deals with C3H female mice. Nature of the series: Lifetime incidence of cancer in normal C3H female mice given Tempol in drinking water. The conditions noted are these: FIG. 2. In kind it is in vivo. From the text:
Female C3H mice were supplied through the Frederick Cancer Research Center-Animal Production, Frederick, Md. […] All groups were allowed food and water ad libitum. All groups were followed for their entire life span. Animals were sacrificed at the first sign of a visible tumor nodule, gross enlargement of spleen, or marked difficulty in breathing. The presence of tumor was confirmed histologically.

In the next series the test system is neoplastic cell lines. To be noted: in vitro; Monti et al., PAACR 1995 and 1997; cited from earlier work.

On to `CC1(C)CC(O)CC(C)(C)N1[O]` [Tempol, 4-hydroxy-2,2,6,6-tetramethylpiperidine-1-oxyl], for which, in the series with C3H female mice (Tempol 58 mM in drinking water for entire life span), the “incidence of cancer (total number of tumors/group) compared to controls” value is reported as “four-fold reduction”. Also, the “incidence of cancer (total number of tumors/group) compared to both control groups” value in the series with C3H female mice (Tempol 58 mM in drinking water for one year) was “dramatically reduced the incidence of cancer”. For the same molecule, in the series on neoplastic cell lines, the “cytotoxicity against neoplastic cell lines” value is recorded as “cytotoxic”.
